Laboratory results taken from US8372383B2, “Agent for inducing hair growth containing extracts of saw palmetto and swertia” (Medidermis Ltd, priority 1999, dated 2013).

Legend:
hair loss [1] = conditions: after at least one-year daily uptake; 39% hair growth in control group; cited from earlier work
Mice (males, C3H type) = experiment: Hair growth model in mice in the resting phase of the hair cycle (weight of hair after 18 days of topical application); format: in vivo
Excerpt: Data was objectively assessed by the experiments given hereafter in an already established hair growth model in mice [Inaoka Y, et al. 1994, 42:530-3.], employing treatment versus controls. As a positive control, minoxidil 5% was used. […] The present invention thus fulfills the need for a natural combination of plant extracts and provides the advantages of unanimous use and excellent efficacy. In mice, the hair growth and effluvium are a continuous cyclic process. […] Therefore, any hair growth during this period is non-physiologic and induced by external agents. […] Any research related to this model should employ minoxidil as the “golden standard” and as an essential positive control. Mice (males, C3H type), which were in the resting phase in their hair cycle, i.e. at 7 weeks of age, were employed in these experiments. The skin of the back of the mice was subjected to a complete hair cut by an electric razor, with areas of approximately 2.5×4 cm. Different solutions, as will be further described, (100 μL/day) were applied with a syringe 6 times a week for 18 days, and the skin was further massaged. At the end of the experiment, the animals were sacrificed and the skin of the back was excised. The excised skin was fixed on frame consisting of a metal disc with a radius of 0.9 cm. Hairs were cut by a scalpel, collected and weighted. […] Data was calculated by SigmaStat version 2.0, Jandel.

hair loss [2] = conditions: at the more effective higher concentrations; cited from earlier work

Row | Structure (SMILES) | success (hair growth) (hair loss [1]) [%] | Weight Of Hair (Mice (males, C3H type); C3H male mice, 7 weeks old, 100 μL/day topically 6 times a week for 18 days, hair from excised back skin, disc of radius 0.9 cm, control (placebo) 2.52 mg) [mg] | increase of hair weight as compared to control mice (Mice (males, C3H type); C3H mice, topical, 18 days, versus placebo-treated control) | side effects (hair loss [2])
1 | CC(C)(C)NC(=O)[C@H]1CC[C@H]2[C@@H]3CC[C@H]4NC(=O)C=C[C@]4(C)[C@H]3CC[C@]12C [Finasteride] | 60 | – | – | –
2 | Nc1cc(N2CCCCC2)nc(N)[n+]1[O-] [Minoxidil 5.0%, minoxidil] | – | 4.07 | about 65% | may cause hypotension or hypertrichosis
